Data taken from patent US7605156B2, “Methods for the use of inhibitors of cytosolic phospholipase A2” (Wyeth, priority 2001, dated 2009).
pIC50: −log10 of the molar value.

Target: T1, cPLA2 (Homo sapiens, UniProt P47712)
T1 sequence (P47712 1-749): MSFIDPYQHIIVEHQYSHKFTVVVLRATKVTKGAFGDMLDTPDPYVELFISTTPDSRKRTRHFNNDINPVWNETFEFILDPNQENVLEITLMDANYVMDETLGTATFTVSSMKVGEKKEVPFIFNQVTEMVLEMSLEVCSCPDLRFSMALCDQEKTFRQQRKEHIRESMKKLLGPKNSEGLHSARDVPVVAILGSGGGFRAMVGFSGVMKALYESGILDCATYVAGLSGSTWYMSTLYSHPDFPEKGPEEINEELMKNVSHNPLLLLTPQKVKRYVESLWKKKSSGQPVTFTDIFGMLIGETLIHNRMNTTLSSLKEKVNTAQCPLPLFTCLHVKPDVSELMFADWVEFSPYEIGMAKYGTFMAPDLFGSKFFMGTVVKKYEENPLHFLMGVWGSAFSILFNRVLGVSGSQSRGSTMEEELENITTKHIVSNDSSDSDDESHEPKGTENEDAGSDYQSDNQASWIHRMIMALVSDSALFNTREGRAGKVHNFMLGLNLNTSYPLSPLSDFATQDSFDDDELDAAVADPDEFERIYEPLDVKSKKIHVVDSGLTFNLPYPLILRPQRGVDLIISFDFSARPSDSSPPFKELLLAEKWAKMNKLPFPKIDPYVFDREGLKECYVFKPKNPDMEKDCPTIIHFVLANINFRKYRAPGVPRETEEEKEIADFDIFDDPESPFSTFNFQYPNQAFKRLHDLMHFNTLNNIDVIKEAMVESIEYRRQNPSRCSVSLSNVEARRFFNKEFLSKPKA
Experiment: Coumarine assay (hydrolysis of 7-hydroxycoumarinyl 6-heptenoate)
Assay type: biochemical
Details: 60 μM 7-hydroxycoumarinyl 6-heptenoate, pH 7.5; read-out: Coumarin IC50
Experimental: Inhibitors were mixed with 200 μL assay buffer (80 mM Heped, pH 7.5, 1 mM EDTA) containing 60 μM 7-hydroxycoumarinyl 6-heptenoate. The reaction was initiated by adding 4 μg cPLA2 in 50 μL assay buffer. Hydrolysis of the 7-hydroxycounarimyl 6-heptenoate ester was monitored in a fluorometer by exciting at 360 nm and monitoring emission at 460 nm. Enzyme activity is proportional to the increase in emission at 460 nm per minute. In the presence of a cPLA2 inhibitor, the rate of increase is less.

First: Cc1c(S(=O)(=O)NCCc2c(CCCc3ccc(C(=O)O)cc3)c3cc(Cl)ccc3n2C(c2ccccc2)c2ccccc2)cnn1-c1ccccc1 [Example 210, 4-{3-[1-benzhydryl-5-chloro-2-(2-{[(5-methyl-1-phenyl-1H-pyrazol-4-yl)sulfonyl]amino}ethyl)-1H-indol-3-yl]propyl}benzoic acid]
Second: Cc1c(S(=O)(=O)NCCc2c(CCOc3ccc(C(=O)O)cc3)c3cc(Cl)ccc3n2C(c2ccccc2)c2ccccc2)cnn1-c1ccccc1 [Example 211, 4-{2-[1-benzhydryl-5-chloro-2-(2-{[(5-methyl-1-phenyl-1H-pyrazol-4-yl)sulfonyl]amino}ethyl)-1H-indol-3-yl]ethoxy}benzoic acid]
The pIC50 of the first is 0.42 log units higher: 6.82 for the first, 6.40 for the second.

Going from `Cc1nn(C)c(C)c1S(=O)(=O)NCCc1c(CCCc2ccc(C(=O)O)cc2)c2cc(Cl)ccc2n1C(c1ccccc1)c1ccccc1` [Example 212, 4-{3-[1-benzhydryl-5-chloro-2-(2-{[(1,3,5-trimethyl-1H-pyrazol-4-yl)sulfonyl]amino}ethyl)-1H-indol-3-yl]propyl}benzoic acid] to `Cc1nn(C)c(C)c1S(=O)(=O)NCCc1c(CCOc2ccc(C(=O)O)cc2)c2cc(Cl)ccc2n1C(c1ccccc1)c1ccccc1` [Example 213, 4-{2-[1-benzhydryl-5-chloro-2-(2-{[(1,3,5-trimethyl-1H-pyrazol-4-yl)sulfonyl]amino}ethyl)-1H-indol-3-yl]ethoxy}benzoic acid], the pIC50 falls from 6.74 to 6.35 (0.39 log units). The first is the more potent here.

Compared with `O=C(O)c1ccc(OCCc2c(CCNS(=O)(=O)c3ccc(-c4ccc(F)cc4)cc3)n(C(c3ccccc3)c3ccccc3)c3ccc(Cl)cc23)cc1` [Example 217, 4-{2-[1-benzhydryl-5-chloro-2-(2-{[(4′-fluoro-1,1′-biphenyl-4-yl)sulfonyl]amino}ethyl)-1H-indol-3-yl]ethoxy}benzoic acid], `O=C(O)c1ccc(OCCc2c(CCNS(=O)(=O)c3ccc(C(F)(F)F)cc3)n(C(c3ccccc3)c3ccccc3)c3ccc(Cl)cc23)cc1` [Example 229, 4-(2-{1-benzhydryl-5-chloro-2-[2-({[4-(trifluoromethyl)phenyl]sulfonyl}amino)ethyl]-1H-indol-3-yl}ethoxy)benzoic acid] is 0.71 log units higher in pIC50: 5.59 for the first, 6.30 for the second.

Compared with `O=C(O)c1ccc(CCCc2c(CCNS(=O)(=O)c3cccc(C(F)(F)F)c3)n(C(c3ccccc3)c3ccccc3)c3ccc(Cl)cc23)cc1` [Example 218, 4-(3-{1-Benzhydryl-5-chloro-2-[2-({[3-(trifluoromethyl)phenyl]sulfonyl}amino)ethyl]-1H-indol-3-yl}propyl)benzoic acid], `O=C(O)c1ccc(CCCc2c(CCNS(=O)(=O)c3ccc(C(F)(F)F)cc3)n(C(c3ccccc3)c3ccccc3)c3ccc(Cl)cc23)cc1` [Example 228] is 0.45 log units lower in pIC50: 6.85 for the first, 6.40 for the second.

Compared with `O=C(O)c1ccc(OCCc2c(CCNS(=O)(=O)c3cccc(C(F)(F)F)c3)n(C(c3ccccc3)c3ccccc3)c3ccc(Cl)cc23)cc1` [Example 219, 4-(2-{1-benzhydryl-5-chloro-2-[2-({[3-(trifluoromethyl)phenyl]sulfonyl}amino)ethyl]-1H-indol-3-yl}ethoxy)benzoic acid], `O=C(O)c1ccc(OCCc2c(CCNS(=O)(=O)c3ccccc3OC(F)(F)F)n(C(c3ccccc3)c3ccccc3)c3ccc(Cl)cc23)cc1` [Example 231] is 0.20 log units higher in pIC50: 6.40 for the first, 6.60 for the second.

`O=C(O)c1ccc(OCCc2c(CCNS(=O)(=O)CSc3ccc(Cl)c(Cl)c3)n(C(c3ccccc3)c3ccccc3)c3ccc(Cl)cc23)cc1` [Example 220, 4-[2-(1-benzhydryl-5-chloro-2-{2-[({[(3,4-dichlorophenyl)thio]methyl}sulfonyl)amino]ethyl}-1H-indol-3-yl)ethoxy]benzoic acid] and `O=C(O)c1ccc(OCCc2c(CCNS(=O)(=O)CSc3ccc(F)c(Cl)c3)n(C(c3ccccc3)c3ccccc3)c3ccc(Cl)cc23)cc1` [Example 221, 4-[2-(1-benzhydryl-5-chloro-2-{2-[({[(3-chloro-4-fluorophenyl)thio]methyl}sulfonyl)amino]ethyl}-1H-indol-3-yl)ethoxy]benzoic acid] are within 0.2 log units of each other in pIC50: 6.40 for the first, 6.30 for the second.

`O=C(O)c1ccc(CCCc2c(CCNS(=O)(=O)c3ccccc3F)n(C(c3ccccc3)c3ccccc3)c3ccc(Cl)cc23)cc1` [Example 222, 4-{3-[1-Benzhydryl-5-chloro-2-(2-{[(2-fluorophenyl)sulfonyl]amino}ethyl)-1H-indol-3-yl)propyl]benzoic acid] and `Cc1ccccc1S(=O)(=O)NCCc1c(CCCc2ccc(C(=O)O)cc2)c2cc(Cl)ccc2n1C(c1ccccc1)c1ccccc1` [Example 232] are within 0.2 log units of each other in pIC50: 6.72 for the first, 6.89 for the second.

Compared with `O=C(O)c1ccc(OCCc2c(CCNS(=O)(=O)c3ccccc3F)n(C(c3ccccc3)c3ccccc3)c3ccc(Cl)cc23)cc1` [Example 223], `Cc1ccccc1S(=O)(=O)NCCc1c(CCOc2ccc(C(=O)O)cc2)c2cc(Cl)ccc2n1C(c1ccccc1)c1ccccc1` [Example 233, 4-{2-[1-benzhydryl-5-chloro-2-(2-{[(2-methylphenyl)sulfonyl]amino}ethyl)-1H-indol-3-yl]ethoxy}benzoic acid] is 0.25 log units higher in pIC50: 6.22 for the first, 6.47 for the second. The second is the more potent here.

Compared with `O=C(O)c1ccc(CCCc2c(CCNS(=O)(=O)c3c(F)cccc3F)n(C(c3ccccc3)c3ccccc3)c3ccc(Cl)cc23)cc1` [Example 224], `O=C(O)c1ccc(OCCc2c(CCNS(=O)(=O)c3c(F)cccc3F)n(C(c3ccccc3)c3ccccc3)c3ccc(Cl)cc23)cc1` [Example 225, 4-{2-[1-benzhydryl-5-chloro-2-(2-{[(2,6-difluorophenyl)sulfonyl]amino}ethyl)-1H-indol-3-yl]ethoxy}benzoic acid] is 0.20 log units lower in pIC50: 6.60 for the first, 6.40 for the second. The first is the more potent here.

First: Cc1cccc(Cl)c1S(=O)(=O)NCCc1c(CCCc2ccc(C(=O)O)cc2)c2cc(Cl)ccc2n1C(c1ccccc1)c1ccccc1 [Example 226]
Second: Cc1c(Cl)cccc1S(=O)(=O)NCCc1c(CCCc2ccc(C(=O)O)cc2)c2cc(Cl)ccc2n1C(c1ccccc1)c1ccccc1 [Example 240, 4-{3-[1-benzhydryl-5-chloro-2(2-{[(3-chloro-2-methylphenyl)sulfonyl]amino}ethyl)-1H-indol-3-yl]propyl}benzoic acid]
The pIC50 of the first is 0.36 log units higher: 6.85 for the first, 6.49 for the second.

Going from `Cc1cccc(Cl)c1S(=O)(=O)NCCc1c(CCOc2ccc(C(=O)O)cc2)c2cc(Cl)ccc2n1C(c1ccccc1)c1ccccc1` [Example 227, 4-{2-[1-benzhydryl-5-chloro-2-(2-{[(2-chloro-6-methylphenyl)sulfonyl]amino}ethyl)-1H-indol-3-yl]ethoxy}benzoic acid] to `Cc1c(Cl)cccc1S(=O)(=O)NCCc1c(CCOc2ccc(C(=O)O)cc2)c2cc(Cl)ccc2n1C(c1ccccc1)c1ccccc1` [Example 241, 4-{2-[1-benzhydryl-5-chloro-2-(2-{[(3-chloro-2-methylphenyl)sulfonyl]amino}ethyl)-1H-indol-3-yl]ethoxy}benzoic acid], the pIC50 falls from 6.80 to 6.27 (0.53 log units).

`COc1ccccc1S(=O)(=O)NCCc1c(CCCc2ccc(C(=O)O)cc2)c2cc(Cl)ccc2n1C(c1ccccc1)c1ccccc1` [Example 234, 4-{3-[1-Benzhydryl-5-chloro-2-(2-{[(2-methoxyphenyl)sulfonyl]amino}ethyl)-1H-indol-3-yl]propyl}benzoic acid] and `CSc1ccccc1S(=O)(=O)NCCc1c(CCCc2ccc(C(=O)O)cc2)c2cc(Cl)ccc2n1C(c1ccccc1)c1ccccc1` [Example 238] are within 0.2 log units of each other in pIC50: 6.64 for the first, 6.60 for the second.

First: COc1ccccc1S(=O)(=O)NCCc1c(CCOc2ccc(C(=O)O)cc2)c2cc(Cl)ccc2n1C(c1ccccc1)c1ccccc1 [Example 235, 4-{2-[1-benzhydryl-5-chloro-2-(2-{[(2-methoxyphenyl)sulfonyl]amino}ethyl)-1H-indol-3-yl]ethoxy}benzoic acid]
Second: CSc1ccccc1S(=O)(=O)NCCc1c(CCOc2ccc(C(=O)O)cc2)c2cc(Cl)ccc2n1C(c1ccccc1)c1ccccc1 [Example 239, 4-(2-{1-benzhydryl-5-chloro-2-[2-({[2-(methylthio)phenyl]sulfonyl}amino)ethyl]-1H-indol-3-yl}ethoxy)benzoic acid]
The pIC50 of the first is 0.42 log units higher: 6.74 for the first, 6.32 for the second. The first is the more potent here.

First: CC(C)(C)c1ccccc1S(=O)(=O)NCCc1c(CCCc2ccc(C(=O)O)cc2)c2cc(Cl)ccc2n1C(c1ccccc1)c1ccccc1 [Example 236]
Second: CC(C)(C)c1ccccc1S(=O)(=O)NCCc1c(CCOc2ccc(C(=O)O)cc2)c2cc(Cl)ccc2n1C(c1ccccc1)c1ccccc1 [Example 237, 4-{2-[1-benzhydryl-2-(2-{[(2-tert-butylphenyl)sulfonyl]amino}ethyl)-5-chloro-1H-indol-3-yl]ethoxy}benzoic acid]
The pIC50 of the first is 0.37 log units higher: 7.07 for the first, 6.70 for the second. The first is the more potent here.

`CC(=O)N1C(C)CN(CCS(=O)(=O)NCCc2c(CCOc3ccc(C(=O)O)cc3)c3cc(Cl)ccc3n2C(c2ccccc2)c2ccccc2)CC1C` (stereo not drawn) [Example 244, 4-[2-(2-{2-[2-(4-Acetyl-3,5-dimethyl-piperazin-1-yl)-ethanesulfonylamino]-ethyl}-1-benzhydryl-5-chloro-1H-indol-3-yl)-ethoxy]-benzoic acid] and `CC1CCN(CCS(=O)(=O)NCCc2c(CCOc3ccc(C(=O)O)cc3)c3cc(Cl)ccc3n2C(c2ccccc2)c2ccccc2)CC1` [Example 245, 4-(2-{1-benzhydryl-5-chloro-2-[2-({[2-(4-methylpiperidin-1-yl)ethyl]sulfonyl}amino)ethyl]-1H-indol-3-yl}ethoxy)benzoic acid] are within 0.2 log units of each other in pIC50: 5.89 for the first, 6.05 for the second.
